The assay has as its target T1, IRAK4 (Homo sapiens, UniProt Q9NWZ3).
T1 sequence (Q9NWZ3 1-460): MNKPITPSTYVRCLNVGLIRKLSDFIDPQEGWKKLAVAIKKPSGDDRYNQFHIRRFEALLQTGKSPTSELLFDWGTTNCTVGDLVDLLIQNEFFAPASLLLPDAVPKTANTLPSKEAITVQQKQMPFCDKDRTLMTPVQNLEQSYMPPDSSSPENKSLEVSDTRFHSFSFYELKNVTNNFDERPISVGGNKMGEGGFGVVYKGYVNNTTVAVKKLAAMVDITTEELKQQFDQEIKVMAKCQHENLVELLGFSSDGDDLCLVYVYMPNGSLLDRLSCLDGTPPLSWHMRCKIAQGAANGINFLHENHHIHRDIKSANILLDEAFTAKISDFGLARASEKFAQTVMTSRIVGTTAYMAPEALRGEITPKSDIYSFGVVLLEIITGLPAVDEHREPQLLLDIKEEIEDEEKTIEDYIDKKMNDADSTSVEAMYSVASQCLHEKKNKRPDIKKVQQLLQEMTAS
The assay is described as follows: Hibit fluorescence detection of proteolysis (IRAK4-HiBiT in HEK293T cells). Format: cell-based. More on the design: host or cells: HEK293T (ATCC). The gist of the method: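 Degradation read-out: luminescence from lytic HiBiT detection (15 min, room temperature) after 24 h compound exposure (37 °C, 5% CO2) of HEK293T cells transiently expressing IRAK4 fused to a HiBiT tag. Data fitted to a bell-shaped four-parameter model giving two EC50 values.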

Setting [1] is: IRAK4-HiBiT, HEK293T cells, 24 h.
Where [2] appears, read: IRAK4-HiBiT, HEK293T cells, 24 h, read-out: DC50.

Structures can show the parent of a compound that is named as a salt. Where two headings read alike, the source gives them in different places.

Take `C[C@H](C#Cc1cccc2c1n(C)c(=O)n2C1CCC(=O)NC1=O)OC1CCN(C[C@H]2CC[C@H](n3cc(-n4cc(-c5cnn6ccc(N7CCOCC7)nc56)nn4)c(C(F)F)n3)CC2)CC1` (stereo partly drawn) [Example 1, 3-(4-((R)-3-((1-(((1r,4R)-4-(3-(difluoromethyl)-4-(4-(5-morpholinopyrazolo[1,5-a]pyrimidin-3-yl)-1H-1,2,3-triazol-1-yl)-1H-pyrazol-1-yl)cyclohexyl)methyl)piperidin-4-yl)oxy)but-1-yn-1-yl)-3-methyl-2-oxo-2,3-dihydro-1H-benzo[d]imidazol-1-yl)piperidine-2,6-dione]: where the note is “HEK-293T”, the Dmax was < 60%. Further, the DC50 under setting [1] is < 0.5 nM.

As for `Cn1c(=O)n(C2CCC(=O)NC2=O)c2cccc(N3CCN(C4CCN(C[C@H]5CC[C@H](n6cc(-n7cc(-c8cnn9ccc(N%10CCC(O)CC%10)nc89)nn7)c(C(F)F)n6)CC5)CC4)CC3)c21` (stereo partly drawn) [Example 138], the Dmax (HEK-293T) was > 80%. Moreover, the DC50 under setting [1] was < 0.5 nM.

`NC(=O)c1cnn2c(-c3cn(-c4cn(C5CCN(CC6CCC7(CC6)CCN(C(=O)c6ccc(Cl)c(N8CCC(=O)NC8=O)c6)CC7)CC5)nc4C(F)F)nn3)ccc2c1` [Example 77]: the Dmax (HEK-293T) fell in the range of 70 to 80%. Moreover, under setting [1], the DC50 fell in the range of 0.5 to 1 nM.

`Cn1c(=O)n(C2CCC(=O)NC2=O)c2cccc(CN3CCN(C[C@H]4CC[C@H](n5cc(-n6cc(-c7ccc8cc(C(N)=O)cnn78)nn6)c(C(F)F)n5)CC4)CC3)c21` (stereo partly drawn) [Example 68]: for the setting “HEK-293T”, the Dmax was > 80%. The DC50 under setting [1] is < 0.5 nM.

In the case of `Cn1c(=O)n(C2CCC(=O)NC2=O)c2cccc(N3CCC4(CCN(CC5CCC(n6cc(-n7cc(-c8cnn9ccc(N%10CCC(O)CC%10)nc89)nn7)c(C(F)F)n6)CC5)CC4)C3)c21` (stereo not drawn) [Example 137, 3-(4-(8-(((1r,4r)-4-(3-(difluoromethyl)-4-(4-(5-(4-hydroxypiperidin-1-yl))pyrazolo[1,5-a]pyrimidin-3-yl)-1H-1,2,3-triazol-1-yl)-1H-pyrazol-1-yl)cyclohexyl)methyl)-2,8-diazaspiro[4.5]dec-2-yl)-3-methyl-2-oxo-2,3-dihydro-1H-benzo[d]imidazol-1-yl)piperidine-2,6-dione], the Dmax result under setting [1] is “A (Dmax ≥ 80%)”. Besides, under setting [2], the DC50 was < 0.5 nM.

For the compound `Cn1c(=O)n(C2CCC(=O)NC2=O)c2cccc(N3CCC4(CCN(C[C@H]5CC[C@H](n6cc(-n7cc(-c8cnn9ccc(N%10CCNCC%10)nc89)nn7)c(C(F)F)n6)CC5)CC4)C3)c21` (stereo partly drawn) [Example 130, 3-(4-(8-(((1r,4r)-4-(3-(difluoromethyl)-4-(4-(5-(piperazin-1-yl)pyrazolo[1,5-a]pyrimidin-3-yl)-1H-1,2,3-triazol-1-yl)-1H-pyrazol-1-yl)cyclohexyl)methyl)-2,8-diazaspiro[4.5]dec-2-yl)-3-methyl-2-oxo-2,3-dihydro-1H-benzo[d]imidazol-1-yl)piperidine-2,6-dione dihydrochloride], the Dmax (HEK-293T) was > 80%. This compound showed a DC50 under setting [1] of 0.5 to 1 nM.

`CN1CCN(c2ccn3ncc(-c4cn(-c5cn([C@H]6CC[C@H](CN7CCN(c8cccc9c8n(C)c(=O)n9C8CCC(=O)NC8=O)CC7)CC6)nc5C(F)F)nn4)c3n2)CC1` (stereo partly drawn) [Compound 227] gave a Dmax (HEK-293T) of 60 to 70%. In addition, the DC50 under setting [2] fell in the range of 1 to 5 nM.

`Cn1c(=O)n(C2CCC(=O)NC2=O)c2cccc(N3CCN(C4CN(C[C@H]5CC[C@H](n6cc(-n7cc(-c8ccc9cc(C(N)=O)cnn89)nn7)c(C(F)F)n6)CC5)C4)CC3)c21` (stereo partly drawn) [Example 67]: under “HEK-293T”, the Dmax is > 80%. Also, the DC50 under setting [1] was < 0.5 nM.

For the setting “HEK-293T”, `Cn1c(=O)n(C2CCC(=O)NC2=O)c2cccc(C#CCOC3CCN(C[C@H]4CC[C@H](n5cc(-n6cc(-n7ccc8cc(C(N)=O)cnc87)nn6)c(C(F)F)n5)CC4)CC3)c21` (stereo partly drawn) [Example 106, 1-{1-[3-(difluoromethyl)-1-[(1r,4r)-4-{[4-({3-[1-(2,6-dioxohexahydropyridin-3-yl)-3-methyl-2-oxobenzo[d]imidazol-4-yl]prop-2-ynyl}oxy)hexahydropyridin-1-yl]methyl}cyclohexyl]pyrazol-4-yl]-1,2,3-triazol-4-yl}pyrrolo[2,3-b]pyridine-5-carboxamide] had a Dmax of 60 to 70%. Moreover, under setting [1], the DC50 is < 0.5 nM.

Consider `Cn1c(=O)n(C2CCC(=O)NC2=O)c2cccc(N3CCC4(CCN(C[C@H]5CC[C@H](n6cc(-n7cc(-c8cnn9ccc(N%10CCNCC%10)nc89)nn7)c(C(F)F)n6)CC5)CC4)CC3)c21` (stereo partly drawn) [Example 129, 3-(4-(9-(((1r,4r)-4-(3-(difluoromethyl)-4-(4-(5-(piperazin-1-yl)pyrazolo[1,5-a]pyrimidin-3-yl)-1H-1,2,3-triazol-1-yl)-1H-pyrazol-1-yl)cyclohexyl)methyl)-3,9-diazaspiro[5.5]undecan-3-yl)-3-methyl-2-oxo-2,3-dihydro-1H-benzo[d]imidazol-1-yl)piperidine-2,6-dione dihydrochloride], for which the Dmax (HEK-293T) was > 80%. Besides, under setting [1], the DC50 was < 0.5 nM.

For `Cn1c(=O)n(C2CCC(=O)NC2=O)c2cccc(N3CCC4(CCN(C[C@H]5CC[C@H](n6cc(-n7cc(-c8ccc9cc(C(N)=O)cnn89)nn7)c(C(F)F)n6)CC5)C4)C3)c21` (stereo partly drawn) [Example 80, 7-(1-(3-(difluoromethyl)-1-((1r,4r)-4-(7-(1-(2,6-dioxy-3-yl)-3-methyl-2-oxo-2,3-dihydro-1H-benzo[d]imidazol-4-yl)-2,7-diazaspiro[4.4]non-2-yl)methyl)-1H-pyrazol-4-yl)-1H-1,2,3-triazol-4-yl)pyrrolo[1,2-b]pyridazine-3-carboxamide], the Dmax (HEK-293T) was > 80%. Further, the DC50 under setting [1] was < 0.5 nM.

`Cn1c(=O)n(C2CCC(=O)NC2=O)c2cccc(N3CC4CCC(C3)N4C[C@H]3CC[C@H](n4cc(-n5cc(-c6cnn7ccc(N8CCOCC8)nc67)nn5)c(C(F)F)n4)CC3)c21` (stereo partly drawn) [Example 49, 3-(4-((1R,4R)-4-(3-(difluoromethyl)-4-(4-(5-morpholinopyrazolo[[1,5-a]pyrimidin-3-yl)-1H-1,2,3-triazol-1-yl)-1H-pyrazol-1-yl)cyclohexyl)-3,8-diazabicyclo[3.2.1]oct-3-yl)-3-methyl-2-oxo-2,3-dihydro-1H-benzo[d]imidazol-1-yl)piperidine-2,6-dione] showed a Dmax (HEK-293T) of 70 to 80%. The same compound registered a DC50 under setting [1] of 1 to 5 nM.

In the case of `Cn1c(=O)n(C2CCC(=O)NC2=O)c2cccc(NC(=O)N3CCC4(CCN(C[C@H]5CC[C@H](n6cc(-n7cc(-c8ccc9cc(C(N)=O)cnn89)nn7)c(C(F)F)n6)CC5)C4)CC3)c21` (stereo partly drawn) [Example 90, 2-(((1r,4r)-4-(4-(4-(3-carbamoylpyrrolo[1,2-b]pyridazin-7-yl)-1H-1,2,3-triazol-1-yl) -3-(difluoromethyl)-1H-pyrazol-1-yl)cyclohexyl)methyl)-N-(1-(2,6-dioxopiperidin-3-yl)-3-methyl-2-oxo-2,3-dihydro-1H-benzo[d]imidazol-4-yl)-2,8-diazaspiro[4.5]decan-8-carboxamide], the Dmax (HEK-293T) was in the range of 70 to 80%. Besides, under setting [1], the DC50 is > 5 nM.

With `C[C@H]1CN(c2ccn3ncc(-c4cn(-c5cn([C@H]6CC[C@H](CN7CCC8(CC7)CCN(c7cccc9c7n(C)c(=O)n9C7CCC(=O)NC7=O)C8)CC6)nc5C(F)F)nn4)c3n2)CCO1` (stereo partly drawn) [Compound 203], the Dmax (HEK-293T) was > 80%. For the same compound, the DC50 under setting [2] is < 0.5 nM.

In the case of `Cn1c(=O)n(C2CCC(=O)NC2=O)c2cccc(N3CCC4(CCN(C[C@H]5CC[C@H](n6cc(-n7cc(-c8cnn9ccc(N%10CCOCC%10)nc89)nn7)c(C(F)F)n6)CC5)CC4)C3)c21` (stereo partly drawn) [Example 45], the Dmax (HEK-293T) was in the range of 70 to 80%. Further, the DC50 under setting [1] is < 0.5 nM.

Values taken from EP4759807A1, “PROTEOLYSIS TARGETING CHIMERA COMPOUND FOR DEGRADING IRAK4 AND USE THEREOF” (Shenzhen Zhongge Biological Technology Co., Ltd., priority 2023, dated 2025).
